Data reported in patent US12636291B2, “Compositions and methods relating to use of agonists of ALPHA5-containing GABAA receptors” (Centre for Addiction and Mental Health, priority 2019, dated 2026).

What was measured:
SV129 mice = test: Neurogenesis (proliferation, survival, maturation) in the SV129 mouse model; type: in vivo; conditions: compared to VEH
Text: We next assessed the effects of GL-II-73 on neurogenesis using the SV129 mouse model Kim et al. 2017. Neural Plasticity, doi.org.10.1155/2017/5863258. Specifically, we assessed the effects of treatment on neuronal cell proliferation, survival, and maturation. It is now recognized that neurogenesis occurs not only during development, but also in the adult brain. […] Specifically, adult neurogenesis is known to occur in three regions in the mammalian brain: (i) the subgranular zone (SGZ) of the dentate gyrus in the hippocampus, which is a region that is involved in regulating learning and memory; (ii) the subventricular zone (SVZ), which is situated throughout the lateral walls of the brain's lateral ventricles; and (ii) the amygdala. New neurons born in the SGZ migrate into the granule cell layer of the dentate gyrus and eventually become granule cells. These newborn neurons integrate into the existing circuitry and receive functional input. Adult neurogenesis in the hippocampus is therefore defined as the progression from neural stem cell to mature dentate granule neuron. All stages of adult neurogenesis are regulated by physiological activity, including the proliferation, differentiation, fate determination of adult neural stem cells (NSCs) and progenitors, and the survival, maturation, and integration of newborn neurons.
The stages of neurogenesis can be broken down into (i) proliferation, (ii) survival of the newly formed cells, and (iii) their maturation. Each can be evaluated using specific markers for proliferation, survival, and maturation. […] BrdU can be used to show survival of the newly proliferating cells since it is incorporated into the newly synthesized DNA of replicating cells and is then maintained in the newly formed cells. Thus, quantitative immunohistochemistry against BrdU is used as a proxy of survival. Finally, doublecortin can be used as a proxy of maturation. Previous studies have shown that all steps of neurogenesis were down regulated in the SV129 mice, and further that chronic treatment with fluoxetine, a first line monoaminergic antidepressant, increased the neurogenesis in this mouse model. We therefore used this model system to assess the effects of chronic treatment with GL-II-73 on neurogenesis.
Fluoxetine treatment was used as a positive control in each experiment.

[1] = tested on: pyramidal cells in the CA1 region of the hippocampus; test: Golgi staining morphological analysis of CA1 pyramidal cells; type: in vivo, mouse; conditions: for total spine counts, apical dendrites / total spine counts, basal dendrites: FIG. 19B; for overall spine density: FIG. 20A; for spine density, apical dendrites / spine density, basal dendrite: FIG. 20B; for spine density versus branch order, overall: FIG. 21A; for spine density versus branch order, basal dendrites: FIG. 21B; for spine density versus branch order, apical dendrites: FIG. 21C; for spine density at 30 um intervals from the soma, overall: FIG. 22A; for spine density at 30 um intervals from the soma, basal dendrites: FIG. 22B; for spine density at 30 um intervals from the soma, apical dendrites: FIG. 22C
Procedure: Details of the animals, materials, and methods used are provided following the discussion section below. Briefly, all studies discussed below were conducted using three groups of animals designated “Young” (2 months of age at the beginning of the 8-week study, 4 months of age at time of testing; “Old” (22 months of age at beginning of study, 24 months of age at time of testing); and “Treatment” (“Old” mice who received GL-II-73 in the drinking water for 8 weeks prior to evaluation of cognitive ability and pyramidal cell morphology). The last study further included a fourth group of animals, “Treatment+Washout” which were treated the same as the “Treatment” group except that the GL-II-73 was removed for a 1 week “wash-out” period prior to evaluation of pyramidal cell morphology.
We confirmed and extended these findings by conducting similar analyses of pyramidal cells in a different brain region, namely the CA1 region of the hippocampus, using the same animals. […] As observed above for the pyramidal cells of the PFC, the morphology of the CA1 pyramidal cells in the treatment group was very similar to that of the young mice. […] The positive correlation between the morphological changes observed in each of the three groups of animals in both regions of the brain, CA1 vs PFC brain regions is shown in FIGS. 11-12. This positive correlation of morphological changes across these two regions of the brain indicates a common factor underlying the effects in both regions.
We also performed the same morphological analyses of pyramidal cells in the CA1 region of the hippocampus for each group.
Drug preparation and administration: The compound GL-II-73 was administered in the drinking water for 8 weeks, and made fresh every other day to prevent any deterioration of the compound in the water at room temperature. The solution was prepared at 30 mg/kg for an estimated volume of 8 ml/mouse/day, based on previous calculations. For the pilot study in the 5×FAD mouse model, the compound GL-II-73 was prepared for intra peritoneal injection only, at a dose of 10 mg/kg. Vehicle solution was made of 85% distilled water, 14% propylene glycol and 1% tween-80.
Brain collection and Golgi staining: Twenty-four hours after the completion of the behavioral testing, mice were euthanized using cervical dislocation. Brains were carefully collected from the skull, rinsed with MilliQ water and immersed in the Golgi staining solution provided by Neurodigitech (San Diego, CA). Six hours after the beginning of the incubation, the solution was changed to provide fresh solution. Then brains were left incubating for 14 days at room temperature, in the dark. For better results, vials containing the brains were gently swirled 3 times a week. After the incubation period, the staining solution was discarded and replaced by a storage solution and brains (n=4 per group) were shipped to Neurodigitech for morphological analysis.
Sample selection criteria: The sampling process was conducted as follows: The investigators first 1) previewed the entire rostro-caudal axis of ROIs, under low-mag Zeiss objectives (10× and 20×), 2), compared and located those with the least truncations of distal dendrites as possible under high-mag Zeiss objectives (40× and 63×), 3), and then 4) used a Zeiss 100× objective with immersion oil to perform 3D dendritic reconstruction, followed by counting of the spines throughout the entire dendritic trees. The criteria for selecting candidate neurons for analysis were based on i) visualization of a completely filled soma with no overlap of neighboring soma and completely filled dendrites, ii) the tapering of most distal dendrites; iii) the visualization of the complete 3-D profile of dendritic trees using the 3-D display of imaging software. Neurons with incomplete impregnation and/or neurons with truncations due to the plane of sectioning were not collected. […]

[2] = Table 3, Old, Treatment group, 4 samples
[3] = Table 3, Old, Washout group, 4 samples
[4] = first study, Old+Treatment mice
[5] = washout study, Old+Treatment vs Young mice, p>0.05
[6] = washout study, Washout vs Old mice, p<0.05
[7] = washout study, Old+Treatment vs Old mice, p<0.05

## C#Cc1ccc2c(c1)C(c1ccccc1F)=N[C@H](C)c1c(C(=O)N(C)C)ncn1-2 (stereo in doubt) [GL-II-73, 8-ethynyl-6-(2-fluorophenyl)-N,N,4-trimethyl-4H-benzo[f]imidazo[1,5-a][1,4]diazepine-3-carboxamide]
SV129 mice; chronic treatment (4 weeks), FIG. 13A, FLX p<0.001, GL-II-73 p<0.05
  proliferation: number of K167-positive cells: increased the number of K167-positive cells
SV129 mice; chronic treatment (4 weeks), FIG. 13B
  survival: BrdU-positive cells: increased survival as shown by the increased in BrdU labeling in SV129 mice, as shown in FIG. 13B, even though not reaching significance
SV129 mice; chronic treatment, FIG. 14B, ps<0.01
  maturation index (DCX+cells possessing tertiary dendrites over the total DCX+cells): an increase with both FLX and GL-II-73
[1]; Table 3, washout study, Old, Treatment group (8 weeks GL-II-73), 4 samples
  Total segments: 1226
[1]; [2]
  Overall spinal density: 1.07
  Total lengths (microns): 60170 microns
  total spine counts: 64468
[1]; Table 3, Old, Washout group (8 weeks GL-II-73, then 1 week wash-out), 4 samples
  Total segments: 1266
[1]; [3]
  Overall spinal density: 1.10
  Total lengths (microns): 65954 microns
  total spine counts: 72587
[1]; [4]
  Frequency of Intersections × 30 um interval from soma, apical: at 150 um-180 um, apically
  Frequency of Intersections × 30 um interval from soma, basal: higher frequency at 120 um-150 um, basally
[1]; first study, Old+Treatment vs Old mice
  Frequency of Intersections × 30 um interval from soma: higher frequency of intersections at the middle (120 um to 180 um) of the dendritic field than Old mice
[1]; first study, treatment group vs untreated old mice
  spine density: relatively higher spine density than the untreated group of old mice
[1]; washout study, FIG. 19A, Old+Treatment vs Young mice, p>0.05
  total spine counts: no difference was found between Young and Old+Treatment as well as Washout mice
[1]; washout study, FIG. 19A, Washout (1 week after 8 weeks GL-II-73) vs Old mice, p<0.05
  total spine counts: higher spine counts than Old mice
[1]; [5]
  total spine counts, apical dendrites: no difference in total spine counts of both basal and apical dendrites between Young and Old+Treatment as well as Washout mice
  total spine counts, basal dendrites: no difference in total spine counts of both basal and apical dendrites between Young and Old+Treatment as well as Washout mice
[1]; [6]
  total spine counts, apical dendrites: higher spine counts of apical dendrites than Old mice
  total spine counts, basal dendrites: higher spine counts of basal dendrites than Old mice
  overall spine density: higher spine density than Old mice
  spine density, apical dendrites: Old mice exhibited a lower spine density than Young, Old+Treatment and Washout mice
  spine density, basal dendrite: Old mice showed a significant decrease in the basal dendrite as compared to Young, Old+Treatment and Washout mice
  spine density versus branch order, overall: higher spine density at the 1st and 3rd to 6th
  spine density versus branch order, basal dendrites: higher density at the 1st branch order than Old mice
  spine density versus branch order, apical dendrites: at the 4th and 5th orders than Old mice
  spine density at 30 um intervals from the soma, overall: higher spine density at 30 um to 180 um from soma
  spine density at 30 um intervals from the soma, basal dendrites: higher density at 30 um from soma than Old mice
  spine density at 30 um intervals from the soma, apical dendrites: higher spine density at 30 um to 60 um and 120 um to 210 um from soma than Old mice
[1]; [7]
  overall spine density: higher spine density than Old mice
  spine density, apical dendrites: Old mice exhibited a lower spine density than Young, Old+Treatment and Washout mice
  spine density, basal dendrite: Old mice showed a significant decrease in the basal dendrite as compared to Young, Old+Treatment and Washout mice
  spine density versus branch order, overall: higher spine density at the 1st and 5th branch orders
  spine density versus branch order, basal dendrites: higher density at the 1st branch order than Old mice
  spine density versus branch order, apical dendrites: higher density at the 1st order than Old mice
  spine density at 30 um intervals from the soma, overall: higher spine density at 30 um to 60 um and 120 um to 240 um from soma
  spine density at 30 um intervals from the soma, basal dendrites: higher density at 30 um from soma than Old mice
  spine density at 30 um intervals from the soma, apical dendrites: higher density at 120 um to 180 um from soma than Old mice
